Measured values as given in PMC5448288 (Journal of the American Chemical Society, 2009).
Where “and” joins values, the source holds several entries; their conditions need not be identical. Identical values can stand only once. Values belong to the compound of their own block, whether it stands above or below them.

Biological target: human indoleamine 2,3-dioxygenase (hIDO) (Homo sapiens, UniProt P14902)
Assay: steady-state dioxygenase activity of hIDO
[1] = compound as substrate, no IDE, pH 7.4, air-saturated, kcat = Vmax/[hIDO]
[2] = L-Trp reaction in the presence of 2.5 mM IDE, pH 7.4
[3] = L-Trp reaction in the presence of 5.1 mM IDE, pH 7.4

human indoleamine 2,3-dioxygenase (hIDO), sequence (P14902 whole entry): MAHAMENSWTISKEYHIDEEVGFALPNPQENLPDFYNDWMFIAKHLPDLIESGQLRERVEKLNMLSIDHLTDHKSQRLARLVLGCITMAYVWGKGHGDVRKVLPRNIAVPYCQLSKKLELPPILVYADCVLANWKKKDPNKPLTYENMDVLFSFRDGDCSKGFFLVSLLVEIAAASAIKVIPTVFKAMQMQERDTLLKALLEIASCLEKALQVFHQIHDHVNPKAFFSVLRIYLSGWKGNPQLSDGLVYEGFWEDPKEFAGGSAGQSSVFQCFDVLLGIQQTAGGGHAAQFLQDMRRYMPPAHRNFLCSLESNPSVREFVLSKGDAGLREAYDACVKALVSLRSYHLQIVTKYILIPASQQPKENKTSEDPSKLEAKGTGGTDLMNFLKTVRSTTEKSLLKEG

mode of inhibition (Lineweaver–Burk plot of L-Trp reaction): uncompetitive
SMILES: CO[C@@]12[C@H](COC(N)=O)C3=C(C(=O)C(C)=C(N)C3=O)N1C[C@@H]1N[C@@H]12 [MtoC, Mitomycin C]

kcat [1]: 3.1 ± 0.2 s⁻¹
Ksi (self-inhibition / substrate-inhibition constant) (compound as substrate, no IDE, pH 7.4, fit with eq 1): 0.17 mM and 0.17 ± 0.2 mM
SMILES: N[C@@H](Cc1c[nH]c2ccccc12)C(=O)O [L-Trp, L-tryptophan]

substrate inhibition (activity as a function of substrate concentration, Figure 1b): No substrate inhibition was observed
Km (compound as substrate): 2600 µM
Km, fold larger as compared to the L-Trp reaction (compound as substrate): 170 fold
kcat, fold faster as compared to the L-Trp reaction (compound as substrate): 2 fold
Km (compound as substrate, no IDE, pH 7.4, air-saturated): 2600 µM
kcat [1]: 5.9 s⁻¹ and 5.9 ± 0.3 s⁻¹
SMILES: N[C@H](Cc1c[nH]c2ccccc12)C(=O)O [D-Trp]

Ksi [2]: 0.48 ± 0.05 mM
kcat [2]: 3.2 ± 0.4 s⁻¹
Ksi [3]: 1.0 ± 0.1 mM
kcat [3]: 3.5 ± 0.6 s⁻¹
SMILES: OCCc1c[nH]c2ccccc12 [IDE, 3-Indole Ethanol]
